From article PMC4013825 (Journal of biomolecular screening, 2014)

What was measured:
[1] = biological target: T1, SERCA2a (sarco/endoplasmic reticulum calcium ATPase) (Canis lupus, UniProt O46674); assay: live-cell intramolecular FRET lifetime dose-response; type: cell-based
[2] = biological target: T1, SERCA2a (sarco/endoplasmic reticulum calcium ATPase); assay: as above; type: cell-based; remark: listed apart in the source

T1 sequence (O46674 whole entry): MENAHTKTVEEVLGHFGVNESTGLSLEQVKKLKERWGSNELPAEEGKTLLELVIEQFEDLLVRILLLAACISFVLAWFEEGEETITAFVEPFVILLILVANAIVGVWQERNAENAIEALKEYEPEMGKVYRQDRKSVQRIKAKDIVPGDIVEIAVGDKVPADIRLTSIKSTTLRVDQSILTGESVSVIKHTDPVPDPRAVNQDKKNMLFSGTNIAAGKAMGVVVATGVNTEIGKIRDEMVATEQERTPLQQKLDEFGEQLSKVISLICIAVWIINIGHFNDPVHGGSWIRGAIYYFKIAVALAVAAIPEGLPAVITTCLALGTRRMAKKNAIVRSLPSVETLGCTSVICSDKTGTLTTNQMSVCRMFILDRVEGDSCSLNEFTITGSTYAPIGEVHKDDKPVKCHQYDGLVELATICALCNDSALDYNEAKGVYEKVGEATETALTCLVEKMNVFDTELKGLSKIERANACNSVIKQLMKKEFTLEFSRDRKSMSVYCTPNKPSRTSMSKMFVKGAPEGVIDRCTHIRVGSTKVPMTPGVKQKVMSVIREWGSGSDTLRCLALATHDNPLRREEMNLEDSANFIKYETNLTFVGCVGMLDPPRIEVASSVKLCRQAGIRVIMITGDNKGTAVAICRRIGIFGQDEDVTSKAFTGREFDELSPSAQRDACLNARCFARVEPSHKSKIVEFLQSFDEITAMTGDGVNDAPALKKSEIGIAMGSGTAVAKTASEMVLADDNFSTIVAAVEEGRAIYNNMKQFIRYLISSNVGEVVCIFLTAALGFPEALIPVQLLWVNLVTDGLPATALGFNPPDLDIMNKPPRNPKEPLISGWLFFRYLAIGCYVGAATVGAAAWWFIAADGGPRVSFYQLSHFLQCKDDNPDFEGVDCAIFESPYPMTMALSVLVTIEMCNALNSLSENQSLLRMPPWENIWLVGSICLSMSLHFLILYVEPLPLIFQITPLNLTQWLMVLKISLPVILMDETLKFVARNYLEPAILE

`CC(=O)C1=C(O)[C@@H]2[C@H]3c4c[nH]c5cccc(c45)C[C@H]3C(C)(C)N2C1=O` [CPA, cyclopiazonic acid] was tested, and the Kd [1] was about 40 nM.

In the case of `C/C=C(/C)C(=O)O[C@H]1C(C)=C2[C@H]([C@@H]1OC(=O)CCCCCCC)[C@@](C)(OC(C)=O)C[C@H](OC(=O)CCC)[C@@]1(O)[C@H]2OC(=O)[C@@]1(C)O` [TG, thapsigargin], the “live-cell intramolecular FRET lifetime dose-response; ATPase inhibition in pig c” value [2] is reported as 7.5 nM.
